Experimental data published in paper PMC9736374, “Design, Synthesis and Antimicrobial Properties of New Tetracyclic Quinobenzothiazine Derivatives” (International Journal of Molecular Sciences, 2022).

Experiments:
[1] = test system: methicillin-resistant S. aureus SA 630 (MRSA2); assay: MBC, agar aliquot subculture method; format: cell-based; settings: Staphylococcus aureus; MRSA2 = SA 630
[2] = test system: vancomycin-resistant E. faecalis VRE 725B (VRE3); assay: MBC, agar aliquot subculture method; format: cell-based, Enterococcus faecalis; settings: VRE3 = VRE 725B
[3] = test system: Staphylococcus aureus ATCC 29213; assay: MIC, microtitration broth method; format: cell-based; settings: ATCC29213; SA = Staphylococcus aureus ATCC 29213; 24 h, 37 °C
[4] = test system: vancomycin-resistant E. faecalis VRE 368 (VRE2); assay: MIC, microtitration broth method; format: cell-based, Enterococcus faecalis; settings: VRE2 = VRE 368; 24 h, 37 °C
[5] = test system: Enterococcus faecalis ATCC 29212; assay: MBC, agar aliquot subculture method; format: cell-based; settings: ATCC29212; EF = Enterococcus faecalis
[6] = test system: S. aureus; assay: Crystal violet uptake (membrane permeability); format: cell-based, Staphylococcus aureus; settings: 4× MIC, 1 h; compared to growth control and 1% Tween 20
Description: Phenothiazines are also known for their ability to interact with and damage the cell wall, which has fatal consequences for the microorganism. Therefore, the bacterial suspensions were treated by compounds 6a, 6e, 6g, 6j and 6k (4× MIC) for 1 h. The uptake of crystal violet was expressed as a percentage compared to the original crystal violet solution.

[7] = test system: Staphylococcus aureus ATCC 29213; assay: MBC, agar aliquot subculture method; format: cell-based; settings: ATCC29213; SA = Staphylococcus aureus ATCC 29213
[8] = test system: Enterococcus faecalis ATCC 29212; assay: MIC, microtitration broth method; format: cell-based; settings: ATCC29212; EF = Enterococcus faecalis; 24 h, 37 °C
[9] = test system: normal human dermal fibroblasts (NHDF); assay: In vitro cell viability, WST-1 assay; format: cell-based; settings: 72 h
Description: Compounds were evaluated for their antiproliferative activity using NHDF (normal human dermal fibroblasts, ATCC, Manassas, VA, USA). The cultured cells were kept at 37 °C and 5% CO2. The cells were seeded (1 × 10^4 cells/well/100 μL DMEM supplemented with 10% FCS and streptomycin/penicillin) into 96-well plates (Corning Inc., Corning, NY, USA). Cells were counted using a hemocytometer (Burker chamber) and phase contrast Olympus IX50 microscope equipped with Sony SSC-DC58 AP camera and Olympus DP10 digital camera. The cell viability of the compounds was determined using the Cell Proliferation Reagent WST-1 assay (Roche Molecular Biochemicals, Mannheim, Germany). The examined cells were exposed to the tested compounds (1 mg/mL DMSO stock) for 72 h at various concentrations (0.1–100 μg/mL). The control was included in order to eliminate the DMSO effect at the concentration used. Cell cultures were incubated with WST-1 (10 μL) for 1 h. The absorbance of the samples was measured against a background control at 450 nm using a microplate reader with a reference wavelength at 600 nm. The obtained results are expressed as means of at least two independent experiments performed in triplicate.

[10] = test system: methicillin-resistant S. aureus 63718 (MRSA3); assay: MIC, microtitration broth method; format: cell-based; settings: Staphylococcus aureus; MRSA3 = 63718; 24 h, 37 °C
[11] = test system: S. aureus ATCC 29213 respiratory activity; assay: MTT assay of bacterial respiration; format: cell-based, Staphylococcus aureus
[12] = Lipophilicity by RP-TLC; format: physicochemical; settings: Tris buffer pH 7.4/acetone, read-out: logPTLC
Description: The lipophilicity parameters were determined experimentally using reverse phase thin-layer chromatography (RP-TLC). Chromatograms were prepared on RP-18F254s plates (1.05559.0001, Merck, Germany) precoated with nonpolar silicone oil. Plates were developed in glass chromatography chambers previously saturated with vapor of mobile phase. The mobile phase was composed of 0.2M Tris buffer (pH = 7.4) and acetone in different concentrations, i.e., 50%, 60%, 70%, 80 and 90%. The chromatograms were visualised in UV light (λ = 254 nm). Determination of the RF coefficient was carried out twice for all compounds; in all cases, acetone concentrations used. The final value of RF is the mean of the two measurements. The obtained RF coefficient was used to calculate the value of the RM parameter according to the equation: RM = log [(1/RF) − 1]. By extrapolating RM values to zero acetone concentration, a relative RM0 lipophilicity parameter was obtained, according to the equation: RM = RM0 + bC, where b is slope and C is concentration of acetone in mobile phase. Based on RM0 and the calibration curve, the values of logPTLC for compounds 6a–l were determined. The calibration curve was calculated using the relationship between RM0 of the standard molecules (acetanilide, p-kresol, p-bromoacetophenone, benzophenone, anthracene) and the corresponding logP parameters specified by the extraction method, respectively. RM0 parameters of the standard molecules and quinobenzothiazine derivatives 6a–l were determined in the same empirical conditions.

[13] = test system: methicillin-resistant S. aureus SA 3202 (MRSA1); assay: MIC, microtitration broth method; format: cell-based; settings: Staphylococcus aureus; MRSA1 = SA 3202; 24 h, 37 °C
[14] = test system: Mycobacterium marinum CAMP 5644; assay: In vitro antimycobacterial MIC, broth dilution micro-method; format: cell-based; settings: CAMP5644, 504 h; MM = Mycobacterium marinum CAMP 5644; 21 days, 28 °C
[15] = test system: methicillin-resistant S. aureus SA 3202 (MRSA1); assay: MBC, agar aliquot subculture method; format: cell-based; settings: Staphylococcus aureus; MRSA1 = SA 3202
[16] = test system: methicillin-resistant S. aureus SA 630 (MRSA2); assay: MIC, microtitration broth method; format: cell-based; settings: Staphylococcus aureus; MRSA2 = SA 630; 24 h, 37 °C
[17] = test system: M. smegmatis ATCC 700084; assay: In vitro antimycobacterial MIC, broth dilution micro-method; format: cell-based, Mycobacterium smegmatis; settings: Mycolicibacterium smegmatis, ATCC700084, 72 h; MS = M. smegmatis ATCC 700084; 3 days, 37 °C
[18] = test system: vancomycin-resistant E. faecalis VRE 342B (VRE1); assay: MBC, agar aliquot subculture method; format: cell-based, Enterococcus faecalis; settings: VRE1 = VRE 342B
[19] = test system: methicillin-resistant S. aureus 63718 (MRSA3); assay: MBC, agar aliquot subculture method; format: cell-based; settings: Staphylococcus aureus; MRSA3 = 63718
[20] = test system: vancomycin-resistant E. faecalis VRE 725B (VRE3); assay: MIC, microtitration broth method; format: cell-based, Enterococcus faecalis; settings: VRE3 = VRE 725B; 24 h, 37 °C
[21] = test system: vancomycin-resistant E. faecalis VRE 368 (VRE2); assay: MBC, agar aliquot subculture method; format: cell-based, Enterococcus faecalis; settings: VRE2 = VRE 368
[22] = test system: vancomycin-resistant E. faecalis VRE 342B (VRE1); assay: MIC, microtitration broth method; format: cell-based, Enterococcus faecalis; settings: VRE1 = VRE 342B; 24 h, 37 °C
[23] = test system: MRSA 63718; set-up: method as in PMID 25692135; settings: cited from earlier work
[24] = S. aureus ATCC 29213, MTT, 24 h

## C[n+]1cc2c(c3ccccc31)Nc1cc(OCc3ccccc3)ccc1S2 [Compound 6k, 10-benzyloxy-5-methyl-12H-quino[3,4-b][1,4]benzothiazinium chloride]
[1]
  MBC: 19.7 µM
[2]
  MBC: 157 µM
[3]
  MIC: 19.7 µM
[4]
  MIC: 157 µM
[5]
  MBC: 78.6 µM
[6]
  Effect on plasma membrane permeability (uptake of crystal violet): did not affect plasma membrane permeability
[7]
  MBC: 19.7 µM
[8]
  MIC: 78.6 µM
[9]
  IC50: > 100 µM
[10]
  MIC: 9.83 µM
[11]; [24]
  Conc.: corresponding multiple of MBC with at least 70% inhibition of respiratory activity: 2× MIC (2× MBC)
  Conc.: lowest multiple of MIC with at least 70% inhibition of respiratory activity: 2× MIC (2× MBC)
[11]; S. aureus ATCC 29213, at MIC
  Decrease in viability < 70% at MIC value (MTT): did not show a decrease in viability < 70%
[11]; at the concentration given
  S. aureus Respiration Inhibition: 97.6%
[12]
  chromatographic logP: 3.48
[13]
  MIC: 19.7 µM
[14]
  MIC: 19.7 µM
[15]
  MBC: 19.7 µM
[16]
  MIC: 9.83 µM
[17]
  MIC: 19.7 µM
[18]
  MBC: 78.6 µM
[19]
  MBC: 9.83 µM
[20]
  MIC: 157 µM
[21]
  MBC: 157 µM
[22]
  MIC: 78.6 µM

## CN[C@H](CC(C)C)C(=O)N[C@H]1C(=O)N[C@@H](CC(N)=O)C(=O)N[C@H]2C(=O)N[C@H]3C(=O)N[C@H](C(=O)N[C@H](C(=O)O)c4cc(O)cc(O)c4-c4cc3ccc4O)[C@H](O)c3ccc(c(Cl)c3)Oc3cc2cc(c3O[C@@H]2O[C@H](CO)[C@@H](O)[C@H](O)[C@H]2O[C@H]2C[C@](C)(N)[C@H](O)[C@H](C)O2)Oc2ccc(cc2Cl)[C@H]1O [vancomycin]
[23]
  MIC of vancomycin: 2 µg/mL
